Assay results reported in patent US10376520B2, “Methods for the treatment of cardiovascular disorders” (Galapagos NV, priority 2015, dated 2019).

Columns and labels:
Assay type in all cases: in vivo, human
[1] = system: RA patients; assay: Total cholesterol determination, Study 4 (4 weeks study in RA patients with inadequate response to methotrexate); conditions: for [Total cholesterol] levels: Study 4
Source text: Randomized, double-blind, placebo-controlled, multicenter, phase II study of Compound 1 (dosed as a [Compound 1:HCl:3H2O]) to compare four dose regimens versus placebo, in combination with methotrexate, administered for 4 weeks in the treatment of subjects with active rheumatoid arthritis who have an inadequate response to methotrexate alone.
(§1) Randomized double-blind, placebo-controlled add on study in subjects with active RA who have an inadequate response to MTX monotherapy, in combination with methotrexate, administered for 4 weeks in the treatment of subjects with active rheumatoid arthritis who have an inadequate response to methotrexate alone.
90 subjects randomized to one of 4 dose regimens of Compound 1 (dosed as a [Compound 1:HCl:3H2O]) or placebo, on top of their stable dose of MTX. Thus, each of the 4 different doses of Compound 1 (dosed as a [Compound 1:HCl:3H2O]) and placebo groups has 18 subjects.
(§2) Compound 1 (dosed as a [Compound 1:HCl:3H2O]) capsules administered orally in 30 mg, 75 mg, 150 mg, or 300 mg doses per day for 4 weeks.
This method is based on the determination of Δ^4 cholestenone after enzymatic cleavage of the cholesterol ester by cholesterol esterase, conversion of cholesterol by cholesterol oxidase, and subsequent measurement by the Trinder reaction of the hydrogen peroxide formed (Allain et al., 1974).
Cholesterol esters are cleaved by the action of cholesterol esterase to yield free cholesterol and fatty acids. Cholesterol oxidase then catalyzes the oxidation of cholesterol to cholest-4-en-3-one and hydrogen peroxide. In the presence of peroxidase, the hydrogen peroxide formed effects the oxidative coupling of phenol and 4-aminophenazone to form a red quinone-imine dye. The color intensity of the dye formed is directly proportional to the cholesterol concentration. It is determined by measuring the increase in absorbance.
Human serum and plasma samples cholesterol determination was done on a Roche/Hitachi Cobas c 701/702 system which automatically calculate the analyte concentration of each sample.

[2] = system: RA patients; assay: Plasma Lecithin-Cholesterol Acyltransferase (LCAT) activity, Study 4; conditions: for LCAT level, 4 weeks CFB: 4 weeks change from baseline
Experimental: as §1, §2
LCAT activity was determined using a commercial available assay from Roar Biomedical. In short; incubation media contained 0.5 μL substrate reagent, 4 μL plasma in a final volume of 100 μL assay buffer. Incubations were performed for 1 h at 37° C. in a microtiter plate. Hereafter 200 μL READ reagent was added to the wells and after mixing, 200 μL was transferred to a black fluorescence compatible microplate. The plate was read at 340 nm excitation, 390 nm and 450 nm emission. LCAT activity was expressed as a ratio of the emission at 390 nm and 450 nm. These two wavelengths represent the LCAT substrate hydrolysed and not hydrolysed. An increase in the ratio indicates increased LCAT activity. Catalogue number RB-LCAT, Lot number used 13581392.

[3] = system: Japanese and Caucasian healthy subjects; assay: LDL determination, Study 3 (healthy volunteers); conditions: for [LDL] % Mean % variation vs baseline 10 days: 200 mg q.d.; for [LDL] levels: Study 3
Experimental: Randomized, double-blind, placebo-controlled study for the assessment of safety, tolerability, pharmacokinetics, and pharmacodynamics, of multiple oral doses of Compound 1 (dosed as a [Compound 1:HCl:3H2O]) in Japanese and Caucasian healthy subjects.
Randomized, double-blind, placebo-controlled, single center, sequential design study.
Compound 1 (dosed as a [Compound 1:HCl:3H2O]) is administered for 10 days as oral film-coated tablet (25 and 100 mg and matching placebos). Placebo are provided as a matching tablet.
The study drug is ingested with 240 mL water after a standardized breakfast on Days 2-9. On PK days (Day 1 and Day 10) the study drug is administered in a fasted state (subjects will receive lunch 4 h after dosing on Day 1 and Day 10).
10 Japanese subjects (6 active, 4 placebo) and 10 Caucasian subjects (6 active, 4 placebo) will receive once daily an oral dose of 200 mg Compound 1 (dosed as a [Compound 1:HCl:3H2O]) or matching placebo as two tablets of 100 mg or matching placebo for 10 days. For practical reasons, these subjects may be split over separate groups, each group consisting of an equal number of Japanese and Caucasian Compound 1 (dosed as a [Compound 1:HCl:3H2O]) treated subjects and Japanese and Caucasian placebo subjects.
The determination of [LDL]-cholesterol is made using an automated method taking advantage of the selective micellary solubilization of [LDL]-cholesterol by a nonionic detergent and the interaction of a sugar compound and lipoproteins (VLDL and chylomicrons).
When a detergent is included in the enzymatic method for cholesterol determination (cholesterol esterase, cholesterol oxidase coupling reaction), the relative reactivities of cholesterol in the lipoprotein fractions increase in this order: [HDL]<chylomicrons <VLDL <[LDL]. In the presence of Mg^2+, a sugar compound markedly reduces the enzymatic reaction of the cholesterol measurement in VLDL and chylomicrons. The combination of a sugar compound with detergent enables the selective determination of [LDL]-cholesterol in serum. (Friedewald et al., 1972; Rifai et al., 1992)
Homogeneous enzymatic colorimetric assay.
In the presence of peroxidase, the hydrogen peroxide generated reacts with 4-aminoantipyrine and Sodium N-(2-hydroxy-3-sulfopropyl)-3,5-dimethoxyaniline (HSDA) to form a purple-blue dye.
The color intensity of this dye is directly proportional to the cholesterol concentration and is measured photometrically.
Human serum and plasma samples [LDL] determination was done on a Roche/Hitachi Cobas c 701/702 system which automatically calculate the analyte concentration of each sample. Samples containing precipitates are centrifuged before performing the assay.

## O=C(Nc1nc2cccc(-c3ccc(CN4CCS(=O)(=O)CC4)cc3)n2n1)C1CC1 [Compound 1, cyclopropanecarboxylic acid {5-[4-(1,1-dioxo-thiomorpholin-4-ylmethyl)-phenyl]-[1,2,4]triazolo[1,5-a]pyridin-2yl}-amide]
[1]; 30 mg qd
  [Total cholesterol] % Mean % variation vs baseline after 4 weeks: 6%
[1]; 75 mg qd
  [Total cholesterol] % Mean % variation vs baseline after 4 weeks: 5%
[1]; 150 mg qd
  [Total cholesterol] % Mean % variation vs baseline after 4 weeks: 3%
[1]; 300 mg qd
  [Total cholesterol] % Mean % variation vs baseline after 4 weeks: 17%
[1]; 30 mg q.d., baseline
  [Total cholesterol] levels: 5.19 mmol/L
[1]; 30 mg q.d., week 1
  [Total cholesterol] levels: 5.31 mmol/L
[1]; 30 mg q.d., week 2
  [Total cholesterol] levels: 5.25 mmol/L
[1]; 30 mg q.d., week 3
  [Total cholesterol] levels: 5.32 mmol/L
[1]; 30 mg q.d., week 4
  [Total cholesterol] levels: 5.50 mmol/L
[1]; 75 mg q.d., baseline
  [Total cholesterol] levels: 4.99 mmol/L
[1]; 75 mg q.d., week 1
  [Total cholesterol] levels: 5.04 mmol/L
[1]; 75 mg q.d., week 2
  [Total cholesterol] levels: 5.07 mmol/L
[1]; 75 mg q.d., week 3
  [Total cholesterol] levels: 5.08 mmol/L
[1]; 75 mg q.d., week 4
  [Total cholesterol] levels: 5.18 mmol/L
[1]; 150 mg q.d., baseline
  [Total cholesterol] levels: 4.77 mmol/L
[1]; 150 mg q.d., week 1
  [Total cholesterol] levels: 4.94 mmol/L
[1]; 150 mg q.d., week 2
  [Total cholesterol] levels: 4.85 mmol/L
[1]; 150 mg q.d., week 3
  [Total cholesterol] levels: 4.89 mmol/L
[1]; 150 mg q.d., week 4
  [Total cholesterol] levels: 4.96 mmol/L
[1]; 300 mg q.d., baseline
  [Total cholesterol] levels: 4.56 mmol/L
[1]; 300 mg q.d., week 1
  [Total cholesterol] levels: 5.13 mmol/L
[1]; 300 mg q.d., week 2
  [Total cholesterol] levels: 5.21 mmol/L
[1]; 300 mg q.d., week 3
  [Total cholesterol] levels: 5.23 mmol/L
[1]; 300 mg q.d., week 4
  [Total cholesterol] levels: 5.33 mmol/L
[2]; 30 mg q.d.
  LCAT level, 4 weeks CFB: 0.4%
[2]; 30 mg q.d., baseline
  LCAT activity (emission ratio): 1.9
[2]; 30 mg q.d., week 4
  LCAT activity (emission ratio): 2
[2]; 75 mg q.d.
  LCAT level, 4 weeks CFB: 4.2%
[2]; 75 mg q.d., baseline
  LCAT activity (emission ratio): 2
[2]; 75 mg q.d., week 4
  LCAT activity (emission ratio): 2.1
[2]; 150 mg q.d.
  LCAT level, 4 weeks CFB: 2.9%
[2]; 150 mg q.d., baseline
  LCAT activity (emission ratio): 1.9
[2]; 150 mg q.d., week 4
  LCAT activity (emission ratio): 1.9
[2]; 300 mg q.d.
  LCAT level, 4 weeks CFB: 4.4%
[2]; 300 mg q.d., baseline
  LCAT activity (emission ratio): 2
[2]; 300 mg q.d., week 4
  LCAT activity (emission ratio): 2.1
[3]; Caucasian
  [LDL] % Mean % variation vs baseline 10 days: −1.3%
[3]; Japanese
  [LDL] % Mean % variation vs baseline 10 days: −8.9%
[3]; Caucasian 200 mg q.d. for 10 days, day 17
  [LDL] levels: 2.5 mmol/L
[3]; Caucasian 200 mg q.d., day 0
  [LDL] levels: 2.6 mmol/L
[3]; Caucasian 200 mg q.d., day 5
  [LDL] levels: 2.6 mmol/L
[3]; Caucasian 200 mg q.d., day 10
  [LDL] levels: 2.4 mmol/L
[3]; Japanese 200 mg q.d. for 10 days, day 17
  [LDL] levels: 2.7 mmol/L
[3]; Japanese 200 mg q.d., day 0
  [LDL] levels: 2.7 mmol/L
[3]; Japanese 200 mg q.d., day 5
  [LDL] levels: 2.5 mmol/L
[3]; Japanese 200 mg q.d., day 10
  [LDL] levels: 2.5 mmol/L
